# Results published in patent US9040586B2, “Veterinary compositions for controlling ecto- and endoparasites in bovines, use of these compositions, use of IGR substances associated with microminerals, method for controlling ecto- and endoparasites in bovines and kit” (Champion Farmoquimico Ltda., priority 2012, dated 2015).
# How the values were obtained:
# [1] = cited from earlier work
# [2] = test system: gastrointestinal nematodes of cattle; conditions: 19 of the 23 farms; cited from earlier work
# [3] = cited from earlier work; remark: listed apart in the source
# [4] = test system: Rhipicephalus (Boophilus) microplus; assay: Rhipicephalus (Boophilus) microplus challenge: engorged female weight and oviposition; type: in vivo, calves; conditions: treated group
# Description: For this challenge, 5 animals were randomly selected from each group. Animals from both control and treated groups were transferred to individual tick-free pens with wooden tiled floor, where they remained for 21 days until the engorged females dropped to the ground. Those were collected on a daily basis for a 5 day period, and put on plastic vessels, formerly washed and dried with paper towels. After the engorged ticks were weighed, they're put on Petri dishes and then into a B.O.D. incubator for two weeks, under 27° C. and relative humidity over 85% (SANTOS e FURLONG, 2002; PEREIRA, 2006).
# After this period, oviposition in each of the Petri dishes were weighed and transferred to assay tubes (15 cm high and with a 15 mm diameter each) sealed with cotton. The assays tubes were labeled and then returned to the B.O.D. incubator, under the same conditions described above, up to the larval emergence.
# Haematobia irritans [5] = assay: Haematobia irritans in vitro test: eggs developed in feces of treated cattle; type: in vivo; conditions: 20 days
# Description: In order to evaluate the efficacy of Diflubenzuron over H. irritans larval development, without possible interference of climate changes, an experiment was conducted under controlled conditions.
# Adult horn flies over untreated animals were captured with a net and then shipped to the Tropical Pathology and Public Health Institute (IPTSP/GO) in order to obtain the eggs. The flies were put on cages lined with moist coffee filter as a substrate for oviposition. The filter was inspected every three hours for eggs. Those were subject to analysis regarding viability and transferred to a vessel containing feces from 4 animals among the control and diflubenzuron treated groups, randomly chosen, each containing 50 viable eggs. These containers with feces were maintained in a B.O.D. incubator with constant temperature (25° C.) and under photoperiod of 12 hours, for a 20 day period, at the end of which was noted an end to the hatching of eggs.
# Both groups—T0 e T1—, were statistically compared by the Mann-Whitney test, with P adjusted in 0.05 due to the impossibility of testing distribution normality, given the low number of repetitions (n=4).
# Haematobia irritans [6] = assay: Haematobia irritans field test: horn fly counts on calves; type: in vivo
# Description: The experiment was conducted at Fazenda Santo Amaro in the city of Ouro Verde de Goiás—GO, Brazil, between October 2011 and January 2012, on 20 calves aged 12-16 months and weigh between 147 and 305 kg, divided in control group (T0) and treated group (T1).
# The animals were weighed, identified and kept on Brachiaha brizantha pasture with “ad libitum” access to drinking water troughs. The control group received “ad libitum” minerals (T0), while the treated group received a micromineral mixture containing iron, copper, manganese, iodine, cobalt, zinc, selenium and chromium added to rock salt. Diflubenzuron was added to this mixture in the following proportion: 1.1 g per kilo of the mixture. A macromineral source was offered separately in the trough.
# In order to determine the number of horn flies, ticks and helminth eggs per gram of feces, as well as periodic weighing, the animals were handled in a 30 day basis.
# The animals were lead to the corral for the initial counting of the total number of horn flies in the cervical and lumbar regions.
# The field experiment was conducted during the summer, a critical period for horn fly infestations in Brazil (BIANCHIN et al., 2004). […]
# At the end of the experimental period, the animals were lead to the containment chute to have the flies counted. […]
molecule,measurement,setting,value
Abamectin,Oral LD50,[1],10 mg/kg
N#Cc1nn(-c2c(Cl)cc(C(F)(F)F)cc2Cl)c(N)c1[S+]([O-])C(F)(F)F (stereo not drawn) [Fipronil],Oral LD50,[1],97 mg/kg
Ivermectin,reductions in FEC,[2],< 50%
same,Oral LD50,[1],52 mg/kg
Cc1ccc(N=c2sccn2C)c(C)c1 [Cymiazoles],withdrawal prior to slaughter,[3]; beef cattle,3 days
same,Withdrawal period Milk,"[3]; milk / lactating cows, in words, table cells wrap over 4 rows: 'Do not apply on lactating cows'",no withdrawn period needed
CC1(C)C(C=C(Cl)Cl)C1C(=O)OC(C#N)c1cccc(Oc2ccccc2)c1 (stereo not drawn) [Cypermethrin],Oral LD50,[1],250 mg/kg
"O=C(NC(=O)c1c(F)cccc1F)Nc1ccc(Cl)cc1 [Diflubenzuron, 1-(4-chloridephenyl)-3-(2,6-difulorobenzoyl)urea]",average engorged female ticks' weight,[4]; control 278 mg,153 mg
same,weight of collected engorged ticks,[4]; control 260-295 mg,145 to 165 mg
same,average egg laying of the female,"[4]; control 2,600",900 eggs
same,hatching average,"Haematobia irritans [5]; 50 viable eggs per container, feces of treated cattle, 25° C., control 43±4.1633",0.5±0.1
same,"calculated efficiency, based on the control group","Haematobia irritans [5]; in vitro, method of HOLDSWORTH et al., 2006",98.83%
same,median lethal dose,[1]; in vivo,"4,640 mg/kg"
same,reduction on horn fly numbers on the treated group,Haematobia irritans [6],higher than 99%
CC1(C)[C@H](C(=O)O[C@H](C#N)c2cccc(Oc3ccccc3)c2)[C@@H]1C=C(Br)Br [Deltamethrin],Oral LD50,[1],130 mg/kg
